{"source": "patent US20090325911A1", "about": "“Use of Androgens for the Treatment of Parkinson's Disease” (CARITAS ST. ELIZABETH MEDICAL CENTER OF BOSTON, INC., priority 2005, published 2009)", "key": {"[1]": {"test_system": "tyrosine hydroxylase", "details": "CHP-212 cells pre-transfected with DJ-1-specific siRNA, increasing amount of DHT for forty-eight hours", "procedure": "The procedures for western blotting and immunoprecipitation were described previously^48. For DJ-1 immunoprecipitation, cells were lysed in denaturing RIPA-DOC buffer (50 mm Tris-HCl buffer (pH 8.0), containing 150 mM NaCl, 1% Triton X-100, 0.1% SDS, 1% sodium deoxycholate, 10 mM EDTA and a protease inhibitor cocktail (1× protease cocktail, Roche (Indianapolis, Ind.). For endogenous DJ-1 and PSF co-immunoprecipitation, cells were lysed in non-denaturing lysis buffer containing 1% Triton-X100. […] Antibody used for immunoprecipitation: rabbit polyclonal anti-DJ-15. Antibodies for western blotting include: a mouse monoclonal anti-tyrosine hydroxylase (Sigma); monoclonal (Stressgen, San Diego, Calif.) and polyclonal anti-DJ-1; a goat anti-β-actin (Santa Cruz Biotechnology, Santa Cruz, Calif.); a rabbit polyclonal anti-androgen receptor (Upstate, Charlottesville, Va.); a rabbit polyclonal anti-AKT and a mouse monoclonal anti-Phospho-AKT (Cell signaling, Beverly, Mass.). Antibodies used for immunoprecipitation included a mouse monoclonal anti-PSF (Sigma) and a rabbit polyclonal anti-DJ-1^18."}, "[2]": {"test_system": "SH-SY5Y cells", "protocol": "FIG. 8A is a graph that quantifies relative cell viability in SH-SY5Y cells that were pretreated with dihydroxytestosterone (DHT) (1 or 10 nM) or vehicle control (Ethanol) for twenty-four hours, then were subjected to H2O2 (500 μM) treatment plus dihydroxytestosterone (1 or 10 nM) or vehicle control for an additional twenty-four hours. Cell toxicity was evaluated using a 3-(4,5-dimethylthiazol-2-yl)-2,5-diphenyltetrazolium bromide (MTT) assay. […] Cells were re-plated and pretreated with 10 nM dihydroxytestosterone or vehicle control (ethanol) for twenty-four hours, followed by H2O2 (300 μM) treatment plus 10 nM dihydroxytestosterone or vehicle control for additional 24 hours. Cell toxicity was evaluated by MTT assay. Values are the mean±s.e.m. n=3 experiments; *: P=0.0068 (t-test).\nTo evaluate whether dihydroxytestosterone similarly protects against oxidative stress-induced cell death in human dopaminergic neuroblastoma cells, SH-SY5Y cells were treated with increasing amount of dihydroxytestosterone in the presence or absence of 500 μM of hydrogen peroxide (H2O2). […] The siRNA treated cells were then further treated with 10 nM of dihydroxytestosterone in the presence or absence of 300 μM of H2O2."}, "[3]": {"test_system": "tyrosine hydroxylase", "details": "untransfected CHP-212 cells, DHT 0-1000 nM, forty-eight hours", "procedure": "(§1) Human CHP-212 cells were purchased from ATCC and maintained in cell culture media, EMEM/F-12 (50%/50%) containing 10% FBS and antibiotics. Native SH-SY5Y cells were maintained in DMEM supplemented with 10% FBS and antibiotics. For immunofluorescence, cells were grown on coverslips. […] Rat tyrosine hydroxylase-luc reporter plasmid (Kim et al Biochem Biophys Res Commun. 2003 Dec. 26; 312(4):950-7) and the pTK-Renilla luciferase plasmid for transfection control were obtained from Promega (Madison, Wis.). Human androgen receptor expression construct PCMV-Flag-AR was kindly provided by Dr. E. Wilson^75. H2O2 and DHT were purchased from Sigma (St. Louis, Mo.).\n(§2) The procedures for western blotting and immunoprecipitation were described previously^48. […]"}, "[4]": {"test_system": "AKT", "details": "10 nM DHT", "procedure": "DJ-1 likely serves as a transcriptional co-activator of androgen receptor^50,51. To determine whether androgen receptor and androgen activate the AKT pathway in human dopaminergic cell lines, native SH-SY5Y cells were treated with 10 nM of […], and levels of phosphorylated AKT was assayed by Western blot. […] The role of androgen receptor signaling in the activation of AKT was also tested in SH-SY5Y cells that were transiently transfected with human androgen receptor then treated with […].\nas §1, §2"}, "[5]": {"details": "most potent of the male steroid hormones; cited from earlier work"}, "[6]": {"test_system": "CHP-212 cells", "details": "DJ-1 siRNA, 10 nM DHT, 300 μM H2O2", "protocol": "Cells were re-plated and pretreated with 10 nM dihydroxytestosterone or vehicle control (ethanol) for twenty-four hours, followed by H2O2 (300 μM) treatment plus 10 nM dihydroxytestosterone or vehicle control for additional 24 hours. Cell toxicity was evaluated by MTT assay. Values are the mean±s.e.m. n=3 experiments; *: P=0.0068 (t-test).\nTo test whether dihydroxytestosterone can reverse this increased susceptibility, endogenous DJ-1 expression in CHP-212 cells was inhibited using DJ-1-specific siRNA. […] The siRNA treated cells were then further treated with 10 nM of dihydroxytestosterone in the presence or absence of 300 μM of H2O2.\nCHP-212 cells or SH-SY5Y cells were plated in six-well culture dishes and transfected with 100 nM of siRNA against human DJ-1 constructs (SMARTpool reagent, Dharmacon, Lafayette, Colo.) or non-specific control siRNA constructs (siControl non-targeting pool, Dharmacon). […] Cells were harvested forty-eight hours post-transfection for RNA extraction or at Day 1,2, or 4 for Western blot or re-plated in 96 well plate for MTS assay at 48 hrs post-transfection."}}, "note": "Where two headings read alike, the source gives them in different places.", "data": [{"smiles": "C[C@]12CCC(=O)C[C@@H]1CC[C@@H]1[C@@H]2CC[C@]2(C)[C@@H](O)CC[C@@H]12", "note": "[dihydroxytestosterone, dihydrotestosterone]", "values": [{"measurement": "rescue of tyrosine hydroxylase expression after DJ-1 inactivation", "setting": "[1]", "result": "fully rescued"}, {"measurement": "cell death induced by oxidative stress", "setting": "[2]; DHT 1 or 10 nM pretreatment 24 h, then 500 μM H2O2 plus DHT 24 h", "result": "significantly blocked cell death"}, {"measurement": "effect on cell viability in the absence of H2O2", "setting": "[2]; DHT 1 or 10 nM, no H2O2", "result": "subtle effect"}, {"measurement": "tyrosine hydroxylase protein levels", "setting": "[3]", "result": "dose-dependent increase"}, {"measurement": "time of peak level of phosphorylated AKT after treatment", "setting": "[4]; SH-SY5Y cells transiently transfected with Flag-AR", "result": 15, "unit": "min"}, {"measurement": "time of peak level of phosphorylated AKT after treatment", "setting": "[4]; native SH-SY5Y cells", "result": "ninety"}, {"measurement": "AKT phosphorylation", "setting": "[4]; native SH-SY5Y cells, 5-90 minutes, no increase of total AKT", "result": "rapid phosphorylation of AKT"}, {"measurement": "activity relative to testosterone", "setting": "[5]", "result": 10, "unit": "times"}, {"measurement": "oxidative stress-induced cell death in DJ-1-specific siRNA treated cells", "setting": "[6]", "result": "significantly reduced oxidative stress-induced cell death"}]}]}
